The text below walks through data of US5641798A, “Bicyclic compounds and their use as excitatory amino acid receptor antagonists” (Eli Lilly and Company, priority 1995, dated 1997).

Values joined by “and” are separate entries in the source; they are usually repeats but may differ in a detail not shown here. Identical values can stand only once. Like-named read-outs stand apart in the source and are kept apart here.

Experiment [1] concerns the target NMDA receptor. As to the kind of experiment: [3H]CGS19755 radioligand binding to Triton-X-treated synaptosomal membranes of rat forebrain. The arrangement: species or system rat (male Sprague-Dawley). The settings on record: [3H]CGS19755 10 nM, ice-bath 30 min, mean, standard error, n=3. The method, then:
The formula I compounds were tested for their ability to inhibit NMDA receptor binding to rat membranes in a radioligand binding assay using [^3 H]CGS19755. For these radioligand binding assays, male Sprague-Dawley rats were used. Displacement of the specific binding [^3 H]CGS19755 (10 nM)to Triton-X-treated synaptosomal membranes of rat forebrain was used to determine NMDA receptor affinity. Non-specific binding was determined using 10 μM L-glutamate. Samples were incubated in an ice-bath for 30 minutes, and bound ligand was separated from the free ligand by rapid filtration through WHATMAN GF/B glass fiber filters. Murphy et al, British J. Pharmacol., 95, 932-938 (1988). The concentration of the formula I compound that inhibited 50% binding (IC50, mean standard error, n=3)was calculated by linear regression of displacement data transformed to the Hill equation as described by Bennett. Bennett, Neurotransmitter Receptor Binding, 57-90 (1978).

Experiment [2] has as its target NMDA receptor. The experiment is described as follows: [3H]MK-801 binding to well washed rat cortical membranes. The settings on record: [3H]MK-801 2.5 nM, glutamate 0.001 μM and glycine 10 μM, 27° C., two hours, mean of three experiments. The method, then: The formula I compounds were also tested for their ability to inhibit NMDA receptor binding using [^3 H]MK-801 (New England Nuclear, Boston, Mass.). Rat brain cortices were extensively washed to remove endogenous glutamate and glycine. Cortices were homogenized in 20 volumes of ice-cold 0.32M sucrose and centrifuged at 1,000 xg for ten minutes. The supernatant was then centrifuged at 20,000 xg for 20 minutes. The resulting pellet was resuspended in 30 volumes of distilled water and centrifuged at 8,000 xg for 20 minutes. The resulting supernatant was centrifuged at 45,000 xg for 20 minutes and the pellet frozen in liquid nitrogen for at least 24 hours. On the day of the assay, the pellet was thawed at room temperature and resuspended in 30 volumes of ice-cold distilled water and centrifuged at 45,000 xg for 20 minutes. The final pellet was resuspended in 50 mM Tris (pH 7.4)at a concentration of 10 vol/gram wet weight of tissue.
The binding of [^3 H]MK-801 to well washed rat cortical membranes was conducted in the presence of added glutamate (0.001 μM) and glycine (10 μM). Antagonists were incubated with [^3 H]MK-801 (2.5 nM) and membrane aliquots (μg/ml protein)in a final volume of 1 ml at 27° C. for two hours. Nonspecific [^3 H]MK-801 binding was determined in the presence of 100 μM MK-801. Assays were terminated by filtering the samples over Whatman GF/B glass-fiber filters, presoaked in 0.05% polyethyleneimine, followed by a 10 ml ice cold saline wash.
These assays were performed in triplicate, and the mean values of three separate experiments were used to obtain the half maximal effective concentration. Final protein concentrations (0.5 mg/ml)for each assay were determined using the Lowry et al. (1951)method. Lowry, Rosebrough, Farr, and Randall, J. Biol. Chem., 193, 265-275 (1951). Analysis of the data was performed using a four-parameter logistic equation Graphpad Software San Diego, Calif.).

Experiment [3] concerns NMDA receptor. The experiment is described as follows: Antagonism of NMDA-induced depolarization of rat cortical wedges. The experiment is classed as cell-based. The settings on record: for NMDA receptor antagonist activity: cortical wedge assay, Table II. The method, then: The depolarization of rat cortical wedges was used to test the selectivity and potency of the formula I compounds as NMDA antagonist using a technique similar to that described by Harrison and Simmonds. Harrison and Simmonds, Bri. J. Pharmacol., 84, 381-391 (1984). Generally, 4-ml aliguots of NMDA (40 μM)were superfused (2 ml/min)on the gray matter at intervals of 15 to 20 minutes until stable responses where obtained. The tissue was then exposed for 15 minutes to various concentrations of the formula I compounds before retesting the agonist. The IC50 values were calculated from linear regression of log dose-response curves, each point the mean of at least three observations on separate slices from more than one animal.
The cortical wedge assay distinguishes between agonist and antagonist activity.

Experiment [4] has as its system focal cerebral ischemia. The settings on record: cats; cited from earlier work.
Experiment [5] has as its system focal cerebral ischemia. The settings on record: rats; cited from earlier work.
The next experiment has as its system formalin model. The settings on record: mouse; cited from earlier work.
Experiment [6] relates to warm water tail withdrawal. The settings on record: rhesus monkeys; cited from earlier work.
A further experiment deals with CNS ischemia. The settings on record: rabbits; cited from earlier work.

As usually defined, the IC50 is the concentration that inhibits the measured activity by half. On to `O=C(O)[C@H]1NC[C@@H]2CC[C@H](Cc3nn[nH]n3)[C@@H]21` (relative stereo) [Compound 33, (1SR,2SR,5RS,8RS)-3-Aza-8-((1(2)H-tetrazol-5-yl)methyl)bicyclo[3.3.0]octane-2-carboxylic Acid], for which the IC50 at NMDA receptor [1] was 0.67 µM and < 1 µM; at NMDA receptor [2], 36.6 ± 7 µM; in the experiment on NMDA receptor [3] (0.25 h), 28.6 ± 5.6 µM. In addition, in the experiment with NMDA receptor [3], the “NMDA receptor antagonist activity” value is “NMDA receptor antagonists”.
In the case of `C[C@]12N[C@H](Cc3ccccc31)c1ccccc12` [dizocilpine], the “protection in focal cerebral ischemia model” value in the experiment on focal cerebral ischemia [4] and in the experiment with focal cerebral ischemia [5] was “provided protection” each time.
`O=C(O)CC1CC[C@H]2CN[C@H](C(=O)O)[C@@H]12` (stereo partly drawn) [Compound 13, (1SR,2SR,5RS,8SR)-3-Aza-8-(carboxymethyl)bicyclo[3.3.0]octane-2-carboxylicAcid and (1SR,2SR,5RS,8RS)-3-Aza-8-(carboxymethyl)bicyclo[3.3.0]octane-2-carboxylicAcid]: the IC50 amounted to 1.19 ± 0.54 µM on NMDA receptor [1], 39 ± 8.7 µM at NMDA receptor [2] and 52 ± 8 µM in the experiment with NMDA receptor [3] (0.25 h).
For the compound `O=C(O)[C@H]1CN(C/C=C/P(=O)(O)O)CCN1` [D-(-)CPP-ene], in the experiment on focal cerebral ischemia [4], the “protection in focal cerebral ischemia model” value is “provided protection”.
With `O=C(O)[C@H]1NC[C@@H]2CC[C@@H](Cc3nn[nH]n3)[C@@H]21` (relative stereo) [Compound 38, (1SR,2SR,5RS,8SR)-3-Aza-8-((1(2)H-tetrazol-5-yl)methyl)bicyclo[3.3.0]octane-2-carboxylic Acid], the results for the IC50 on NMDA receptor [1], on NMDA receptor [2] and in the experiment with NMDA receptor [3] (0.25 h) were 3.13 ± 0.58 µM, 47.3 ± 7.62 µM and greater than 100 µM, respectively.
Regarding `O=C(O)[C@H]1NC[C@@H]2CCC(OCc3nn[nH]n3)[C@@H]21` (stereo partly drawn) [Compound 27, (1SR,2SR,5RS,8SR)-3-Aza-8-((1(2)H-tetrazol-5-yl)methoxy)bicyclo[3.3.0]octane-2-carboxylic Acid and (1SR,2SR,5RS,8RS)-3-Aza-8-((1(2)H-tetrazol-5-yl)methoxy)bicyclo[3.3.0]octane-2-carboxylic Acid], the IC50 at NMDA receptor [1] is 5.66 ± 0.15 µM; at NMDA receptor [2], greater than 100 µM.
For `O=C(O)[C@H]1NC[C@@H]2CCC(CCOCc3nn[nH]n3)[C@@H]21` (stereo partly drawn) [Compound 23, (1SR,2SR, 5RS,8SR)-3-Aza-8-(2-(1(2)H-tetrazol-5-ylmethoxy)ethyl)bicyclo[3.3.0]octane-2-carboxylic Acid and (1SR,2SR,5RS,8RS)-3-Aza-8-(2-(1(2)H-tetrazol-5-ylmethoxy)ethyl)bicyclo[3.3.0]octane-2-carboxylic Acid], the IC50 on NMDA receptor [1] was greater than 100 µM; on NMDA receptor [2], greater than 100 µM; in the experiment with NMDA receptor [3] (NMDA 40 μM, 15 min exposure to compound, rat cortical wedges, read-out: Antagonism of Cortical Wedge Depolarization IC50), greater than 100 µM.
Take `NC(CCCP(=O)(O)O)C(=O)O` (racemic) [DL-AP5]: the “analgesia in formalin model” value with formalin model is “analgesic”.
As to `O=C(O)[C@H]1NC[C@@H]2CCC(CCSc3nn[nH]n3)[C@@H]21` (stereo partly drawn) [Compound 22, (1SR,2SR,5RS,8SR)-3-Aza-8-(2-(1(2)H-tetrazole-5-thio)ethyl)bicyclo[3.3.0]octane-2-carboxylic Acid and (1SR,2SR,5RS,8RS)-3-Aza-8-(2-(1(2)H-tetrazole-5-thio)ethyl)bicyclo[3.3.0]octane-2-carboxylic Acid], the IC50 on NMDA receptor [1] is 26.1 ± 6.13 µM; at NMDA receptor [2], greater than 100 µM.
On to `O=C(O)[C@H]1NC[C@@H]2CCC(Cc3nn[nH]n3)[C@@H]21` (stereo partly drawn) [Compound 12, (1SR,2SR,5RS,8SR)-3-Aza-8-((1(2)H-tetrazol-5-yl)methyl)bicyclo[3.3.0]octane-2-carboxylic Acid and (1SR,2SR,5RS,8RS)-3-Aza-8-((1(2)H-tetrazol-5-yl)methyl)bicyclo[3.3.0]octane-2-carboxylic Acid], for which the IC50 at NMDA receptor [1] was 0.73 µM and < 1 µM; on NMDA receptor [2], 49.7 ± 14.2 µM; in the experiment on NMDA receptor [3] (0.25 h) it was 9.5 ± 5 µM. Also, the “NMDA receptor antagonist activity” value with NMDA receptor [3] is on record as “NMDA receptor antagonists”.
For `O=C(O)[C@@H]1C[C@H](CP(=O)(O)O)CCN1` [CGS 19755], the “protection in focal cerebral ischemia model” value in the experiment on focal cerebral ischemia [5] is listed as “provided protection”. Besides, the “analgesia in warm water tail withdrawal procedure” value in experiment [6] is “analgesic”.
For the compound `O=C(O)[C@H]1NC[C@@H]2CCC(CCc3nn[nH]n3)[C@@H]21` (stereo partly drawn) [Compound 21, (1SR,2SR,5RS,8SR)-3-Aza-8-(2-(1 (2)H-tetrazol-5-yl)ethyl)bicyclo[3.3.0]octane-2-carboxylic Acid and (1SR,2SR,5RS,8RS)-3-Aza-8-(2-(1(2)H-tetrazol-5-yl)ethyl)bicyclo[3.3.0]octane-2-carboxylic Acid], the IC50 was 4.5 ± 0.98 µM at NMDA receptor [1], 37.7 ± 9.3 µM at NMDA receptor [2] and greater than 100 µM with NMDA receptor [3] (0.25 h).
For `O=C(O)C1NCC2CCC(CSc3nn[nH]n3)C21` (stereo not drawn) [Compound 32, (1SR,2SR,5RS,8SR)-3-Aza-8-((1(2)H-tetrazole-5-thio)methyl)bicyclo[3.3.0]octane-2-carboxylic Acid], the figures for the IC50 on NMDA receptor [1], on NMDA receptor [2] and in the experiment on NMDA receptor [3] (0.25 h) were 1.31 ± 0.48 µM, 27.8 ± 12.2 µM and 59.7 ± 10 µM, respectively.
Turning to `O=C(O)[C@H]1C[C@@H](Cc2nn[nH]n2)CCN1` (relative stereo) [LY233053], in the experiment with CNS ischemia, the “protection in CNS ischemia model” value is recorded as “provided protection”.
For `O=C(O)CCC1CC[C@H]2CN[C@H](C(=O)O)[C@@H]12` (stereo partly drawn) [Compound 20, (1SR,2SR,5RS,8SR)-3-Aza-8-(2-carboxyethyl)bicyclo[3.3.0]octane-2-carboxylic Acid and (1SR,2SR,5RS,8RS)-3-Aza-8-(2-carboxyethyl)bicyclo[3.3.0]octane-2-carboxylic Acid], the IC50 was 1.44 ± 0.04 µM at NMDA receptor [1], 47.3 ± 21 µM on NMDA receptor [2] and greater than 100 µM in the experiment with NMDA receptor [3] (0.25 h).
